Tested on: 2-phenyl-1,4-benzoquinone-induced writhing in mice
Test: 2-phenyl-1,4-benzoquinone-induced writhing test in mice (analgesia, phenylquinone writhing, PQW)
Format: in vivo
From the text: The compounds of Formula I of the present invention are useful as analgesic agents due to their ability to alleviate pain in mammals. […] Exptl. Biol. Med., 95, 729 (1957)].

SMILES	Analgesic PQW, % Inhibition of Writhing at 20 mg/kg., s.c. [%]
Cc1nnc2n1-c1ccccc1-c1cc3ccccc3n1C2 [Example 7, 1-Methyl-4H-indolo[1,2-d][1,2,4]triazolo[4,3-a][1,4]benzodiazepine]	37
Cc1nnc2n1-c1ccccc1-c1c(Cl)c3ccccc3n1C2 [Example 8, 10-chloro-1-methyl-4H-indolo-[1,2-d][1,2,4]triazolo[4,3-a]-[1,4]benzodiazepine]	51
Cc1nnc2n1-c1ccc(Cl)cc1-c1cc3ccccc3n1C2 [Example 9, 12-Chloro-1-methyl-4H-indolo[1,2-d][1,2,4]triazolo[4,3-a][1,4]benzodiazepine]	46
Cc1nnc2n1-c1ccc(Cl)cc1-c1c(Cl)c3ccccc3n1C2 [Example 11, 10,12-Dichloro-1-methyl-4H-indolo[1,2-d][1,2,4]triazolo[4,3-a][1,4]benzodiazepine]	32
